Source: patent US8877752B2, “4(1H)-quinolones having antimalarial activity with reduced chemical resistance” (University of South Florida, priority 2011, dated 2014)
Read-outs that look alike come from different tables or passages of the source. Blank lines part the entries; values can stand above or below the molecule they belong to.

What was measured:
[1] = test system: P. falciparum clone W2/Indochina (chloroquine- and pyrimethamine-resistant); test: in vitro antimalarial activity against W2 (SYBR Green I); format: cell-based; conditions: for EC50: Plasmodium falciparum, P. falciparum W2, 72 hrs incubation; for antimalarial activity against W2 (in words): comparison; for less active against W2 in comparison to 17: relative to reference compound 17
Experimental: (§1) All synthesized quinolones were tested as described in Cross et al., (2010) J. Med. Chem. 53, 7076-7094 and Reid et al., (2011) Bioorg.
(§2) Parasite Culturing: P. falciparum clone W2/Indochina and TM90C2B/Thailand were grown in continuous culture using RPMI 1640 media containing 10% heat-inactivated type A+ human plasma, sodium bicarbonate (2.4 g/L), HEPES (5.94 g/L) and 4% washed human type A+ erythrocytes. Cultures were gassed with a 90% nitrogen, 5% oxygen and 5% carbon dioxide mixture followed by incubation at 37° C.
(§3) Assay Preparation: Test compounds at 5 mg/mL in DMSO were diluted at least 1:400 and then serially diluted in duplicate over 11 concentrations. P. falciparum cultures with greater than 70% ring stage parasites were diluted to 0.5-0.7% parasitemia and 1.5% hematocrit in RPMI 1640 media. In 96-well plates a volume of 90 μl/well of parasitized erythrocytes was added on top of 10 μL/well of the test compound. […] A Beckman Coulter Biomek 3000 was used to dispense test compounds, control drugs and parasitized erythrocytes into the microtiter plates. Positive and negative controls were included in each plate. […] Assay plates were placed into a plastic gassing chamber and equilibrated with 90% nitrogen, 5% oxygen and 5% carbon dioxide mixture then incubated at 37° C. for 72 hrs. The assay plates were then frozen at −80° C. until later processed for parasite growth determinations.
(§4) SYBR Green I Processing: Assay plates were removed from −80° C. storage and allowed to thaw at room temperature. Using the Beckman Biomek 3000, 100 μL was transferred from the assay plates into 96-well black assay plates. Next, 100 μl of SYBR green I (Invitrogen) in 2× lysis buffer (0.2 μl SYBR green I/mL of 2× lysis buffer (0.008% saponin, 0.08% Triton X-100, 20 mM Tris and 5 mM EDTA)) was dispensed into each well of the 96-well black assay plate using the Beckman Coulter Biomek 3000. Upon addition of SYBR green I the microtiter plates were incubated for 1 hrs. in the dark. Relative Fluorescence units (RFU) were read using a Molecular Devices Spectramax microplate reader.
(§5) Data Analysis: Data analysis was performed using a custom database manager (Dataspects, Inc). Nonlinear regression analysis was used to calculate EC50.

[2] = test system: P. falciparum TM90-C2B/Thailand (chloroquine-, mefloquine-, pyrimethamine-, and atovaquone-resistant); test: in vitro antimalarial activity against TM90-C2B (SYBR Green I); format: cell-based; conditions: for EC50: Plasmodium falciparum, read-out: EC50 against TM90-C2B; for resistance index RI=EC50(TM90-C2B)/EC50(W2): RI 0.3-3.0 considered acceptable; for less potent against TM90-C2B than against W2: W2 versus TM90-C2B; for antimalarial activity against TM90-C2B (in words): comparison; for more potent against TM90-C2B compared to 27: relative to compound 27
Experimental: as §1, §2, §3, §4, §5

[3] = test system: P. cynomolgi sporozoites; conditions: treated 5 to 7 consecutive days, cited from earlier work
[4] = P. falciparum TM90-C2B, 72 hrs incubation

EC50 [1]: 0.53 nM
EC50 [2, 4]: > 170 nM
SMILES: O=C1C(O)=C([C@H]2CC[C@H](c3ccc(Cl)cc3)CC2)C(=O)c2ccccc21 [ATO, atovaquone, reference compound]

SMILES: CCCCc1cc2c(=O)c(C(=O)OC)c(C)[nH]c2cc1OCCOc1ccccc1 [Compound 5, Methyl 6-butyl-2-methyl-4-oxo-7-(2-phenoxyethoxy)-1,4-dihydroquinoline-3-carboxylate, reference compound]
EC50 [1]: 0.05 nM
EC50 [2, 4]: 11.2 nM
resistance index RI=EC50(TM90-C2B)/EC50(W2) [2]: 223
less potent against TM90-C2B than against W2 [2]: approximately 220
relapse after 120 days of exposure ([3]; rhesus monkeys inoculated intravenously with sporozoites): no relapse
curative dose ([3]; rhesus monkeys): 15 mg/kg

SMILES: CCCCc1cc2c(=O)c(CC)c(C)[nH]c2cc1OCCOc1ccccc1 [Compound 16, 6-butyl-3-ethyl-2-methyl-7-(2-phenoxyethoxy)quinolin-4(1H)-one]
EC50 [1]: 1.92 nM
EC50 [2, 4]: 0.15 nM
resistance index RI=EC50(TM90-C2B)/EC50(W2) [2]: 0.08

SMILES: CCc1c(C)[nH]c2cc(OCCOc3ccccc3)c(Cl)cc2c1=O [Compound 17, 6-chloro-3-ethyl-2-methyl-7-(2-phenoxy-ethoxy)-1H-quinolin-4-one]
antimalarial activity against W2 (in words) [1]: slightly reduced activities
antimalarial activity against TM90-C2B (in words) [2]: unaffected or slightly improved

SMILES: CCc1c(C)[nH]c2cc(OCCOc3ccccc3)c(C)cc2c1=O [Compound 18, 3-ethyl-2,6-dimethyl-7-(2-phenoxy-ethoxy)-1H-quiolin-4-one]
antimalarial activity against W2 (in words) [1]: less active
more potent against TM90-C2B compared to 27 [2]: 3 fold

SMILES: CCc1c(C)[nH]c2cc(OCCOc3ccccc3)c(OC)cc2c1=O [Compound 19]
antimalarial activity against W2 (in words) [1]: less active
more potent against TM90-C2B compared to 27 [2]: 3 fold

SMILES: CCc1c(C)[nH]c2cc(OCOC)c(Cl)cc2c1=O [Compound 20, 6-chloro-3-ethyl-7-methoxymethoxy-2-methyl-1H-quinoline-4-one]
less active against W2 in comparison to 17 [1]: approximately 4 fold

melting point: 270 to 271 °C
SMILES: CCc1c(C)[nH]c2cc(OCCN3CCOCC3)c(Cl)cc2c1=O [Compound 23, 6-chloro-3-ethyl-2-methyl-7-(2-morpholin-4-yl-ethoxy)-1H-quinolin-4-one]

melting point: 227 to 230 °C
SMILES: CCc1c(C)[nH]c2cc(OCCN(C)C)c(Cl)cc2c1=O [Compound 24, 6-chloro-7-(2-dimethylamino-ethoxy)-3-ethyl-2-methyl-1H-quinolin-4-one]

SMILES: CCc1c(C)[nH]c2cc(OCCOc3ccccc3)c(Br)cc2c1=O [Compound 25, 6-bromo-3-ethyl-2-methyl-7-(2-phenoxy-ethoxy)-1H-quinolin-4-one]
antimalarial activity against W2 (in words) [1]: slightly reduced activities
antimalarial activity against TM90-C2B (in words) [2]: unaffected or slightly improved

SMILES: CCc1c(C)[nH]c2cc(OCCCN3CCN(c4ccccc4)CC3)c(Cl)cc2c1=O [Compound 26, 6-chloro-3-ethyl-2-methyl-7-[3-(4-phenyl-piperazin-1-yl)-propoxy]-1H-quinolin-4-one]
less active against W2 in comparison to 17 [1]: approximately 4 fold

EC50 [1]: 104 nM
EC50 [2, 4]: 71.3 nM
SMILES: CCc1c(C)[nH]c2cc(OCCOc3ccccc3)ccc2c1=O [Compound 27, 3-ethyl-2-methyl-7-(2-phenoxyethoxy)quinolin-4(1H)-one]

EC50 [2, 4]: 764 nM
SMILES: CCCCc1cc2c(=O)c(-c3ccccc3)c(C)[nH]c2cc1OCCOc1ccccc1 [Compound 31, 6-butyl-2-methyl-7-(2-phenoxyethoxy)-3-phenylquinolin-4(1H)-one]

SMILES: CCCCc1cc2c(=O)c(-c3ccncc3)c(C)[nH]c2cc1OCCOc1ccccc1 [Compound 32, 6-butyl-2-methyl-7-(2-phenoxyethoxy)-3-(pyridin-4-yl)quinolin-4(1H)-one]
antimalarial activity against W2 (in words) [1]: moderate activity in low micromolar or high nanomolar range
antimalarial activity against TM90-C2B (in words) [2]: moderate activity in low micromolar or high nanomolar range

SMILES: CCCCc1cc2c(=O)c(-c3cccnc3)c(C)[nH]c2cc1OCCOc1ccccc1 [Compound 33, 6-butyl-2-methyl-7-(2-phenoxyethoxy)-3-(pyridin-3-yl)quinolin-4(1H)-one]
antimalarial activity against W2 (in words) [1]: moderate activity in low micromolar or high nanomolar range
antimalarial activity against TM90-C2B (in words) [2]: moderate activity in low micromolar or high nanomolar range

SMILES: CCCCc1cc2c(=O)c(-c3ccc(OC(F)(F)F)cc3)c(C)[nH]c2cc1OCCOc1ccccc1 [Compound 35, 6-butyl-2-methyl-7-(2-phenoxyethoxy)-3-(4-(trifluoromethoxy)phenyl)quinolin-4(1H)-one]
EC50 [1]: 27.9 nM
EC50 [2, 4]: 31 nM
resistance index RI=EC50(TM90-C2B)/EC50(W2) [2]: 1.1

SMILES: CCCCc1cc2c(=O)c(-c3cccc(Oc4ccc(F)cc4)c3)c(C)[nH]c2cc1OCCOc1ccccc1 [Compound 36, 6-butyl-3-(3-(4-fluorophenoxy)phenyl)-2-methyl-7-(2-phenoxyethoxy)quinolin-4(1H)-one]
antimalarial activity against W2 (in words) [1]: inactive
antimalarial activity against TM90-C2B (in words) [2]: inactive

SMILES: CCCCc1cc2c(=O)c(-c3ccc(COc4ccc(OC(F)(F)F)cc4)cc3)c(C)[nH]c2cc1OCCOc1ccccc1 [Compound 37, 6-butyl-2-methyl-7-(2-phenoxyethoxy)-3-(4-((4-(trifluoromethoxy)phenoxy)methyl)phenyl) quinolin-4(1H)-one]
antimalarial activity against W2 (in words) [1]: inactive
antimalarial activity against TM90-C2B (in words) [2]: inactive

SMILES: CCCCc1cc2c(=O)c(-c3ccc(C(F)(F)F)cc3F)c(C)[nH]c2cc1OCCOc1ccccc1 [Compound 41, 6-butyl-3-(2-fluoro-4-(trifluoromethyl)phenyl)-2-methyl-7-(2-phenoxyethoxy)quinolin-4(1H)-one]
resistance index RI=EC50(TM90-C2B)/EC50(W2) [2]: pharmaceutically acceptable

SMILES: CCCCc1cc2c(=O)c(-c3c(C)noc3C)c(C)[nH]c2cc1OCCOc1ccccc1 [Compound 43, 6-butyl-3-(3,5-dimethylisoxazol-4-yl)-2-methyl-7-(2-phenoxyethoxy)quinolin-4(1H)-one]
EC50 [1]: 27 nM
resistance index RI=EC50(TM90-C2B)/EC50(W2) [2]: pharmaceutically acceptable
less potent against TM90-C2B than against W2 [2]: approximately 5

SMILES: C[C@H]1[C@@H](O)O[C@@H]2O[C@@]3(C)CC[C@H]4[C@H](C)CC[C@@H]1[C@@]24OO3 [DHA, Dihydroartemisinin, reference compound]
EC50 [1]: 1.8 nM
EC50 ([2]; TM90, 72 h): 0.9 nM
